Experimental data from patent publication US11866405B2, “Substituted indazoles as IRAK4 inhibitors” (AstraZeneca AB, priority 2020, dated 2024).

Tests used:
[1] = target: human recombinant IRAK4 protein (Homo sapiens (Human), UniProt Q9NWZ3); test: IRAK4 enzyme assay (mass spectrometry readout); type: biochemical; conditions: 3 mM ATP, 0.2 nM enzyme; geometric mean of at least n=2, * single experiment
Experimental: Potency of IRAK4 Inhibitor Compounds in IRAK4 Enzyme Assay
The inhibitory activity of compounds against IRAK4 were determined in an enzymatic assay using mass spectrometry readout. Ten point half-log compound concentration response curves, with a top concentration of 1 μM or 10 μM, were generated from 10 mM stocks of compound solubilized in DMSO using an Echo 655 (Labcyte Inc) and added to 384 well assay plates (Greiner #781280). To the assay plates, 10 μL of human recombinant IRAK4 protein (Life Technologies #PV4002) diluted to a final concentration of 0.2 nM in assay buffer (50 mM Tris-HCl pH 7.4, 10 mM MgCl, 5 mM glutathione, 0.01% BSA, 3 mM ATP) was added. The enzyme was incubated with the compounds at room temperature for 15 minutes before a peptide substrate ([…], Innovagen custom synthesis, 10 mM in DMSO) was added to each well to a final concentration of 10 μM using an Echo 655 (Labcyte Inc). After two hours at room temperature, the reaction was stopped with 90 μL of 0.4% formic acid (Merck #33015). The unphosphorylated and phosphorylated peptide were measured by LC-MS/MS on a Waters TQ-S mass spectrometer. Peaks were integrated using the TargetLynx software and the ratios between phosphorylated and unphosphorylated peptides were calculated. Curves were fitted and compound potencies determined in Genedata Screener 15 (Genedata AG). Data presented are the geometric mean of at least n=2, or as denoted by an * are obtained from a single experiment.

[2] = target: IRAK4 auto-phosphorylation (Homo sapiens (Human), UniProt Q9NWZ3); test: IRAK4 phosphorylation cell assay in IL-1β-stimulated Karpas-299 cells; type: cell-based; conditions: IL-1β 22.7 ng/mL, pIRAK4 (Thr345/Ser346), geometric mean of at least 2 experiments
IRAK4 auto-phosphorylation, sequence (Q9NWZ3 whole entry): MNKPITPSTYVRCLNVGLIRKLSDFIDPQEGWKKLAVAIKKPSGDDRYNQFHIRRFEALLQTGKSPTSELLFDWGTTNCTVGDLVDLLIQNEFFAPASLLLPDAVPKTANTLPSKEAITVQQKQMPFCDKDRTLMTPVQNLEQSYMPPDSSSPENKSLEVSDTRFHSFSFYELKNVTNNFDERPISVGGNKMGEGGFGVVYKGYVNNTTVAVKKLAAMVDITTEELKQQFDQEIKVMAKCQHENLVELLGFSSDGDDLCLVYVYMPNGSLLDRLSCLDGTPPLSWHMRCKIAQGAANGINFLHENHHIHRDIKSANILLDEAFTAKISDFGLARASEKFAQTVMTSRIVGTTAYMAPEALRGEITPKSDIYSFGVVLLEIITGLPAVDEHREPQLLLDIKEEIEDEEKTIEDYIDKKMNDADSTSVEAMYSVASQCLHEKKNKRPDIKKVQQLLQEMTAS
Experimental: IRAK4 Phosphorylation Cell Assay
The activation of IRAK4 by TLR or IL-1R ligands leads to IRAK4 auto-phosphorylation, which can be prevented by IRAK4 kinase inhibitors. The effect of IRAK4 inhibitor compounds on IRAK4 auto-phosphorylation was assessed in IL-1β-stimulated Karpas-299 cells as a measurement of cellular potency. Karpas-299 cells were cultured in RPMI 1640 (Gibco 61870-010) containing 10% FBS (Gibco #10270). Cells were plated at 2×10^4 cells per well in poly-D-lysine coated 384 well plates (Corning #356663) to which compounds had been added at various concentrations (10 point half log dose response with a final top concentration of 30 μM) using an Echo 655 (Labcyte Inc). Cells were centrifuged (250 g, 4 mins), incubated at 37° C. for 1 h, then stimulated with 22.7 ng/mL recombinant IL-1β (R&D Systems, #201-LB-025) at 37° C. for 10 mins, followed by fixation in 4% paraformaldehyde for 10 mins and permeabilization in ice-cold 70% MeOH for 30 mins. Cells were washed twice with phosphate-buffered saline (PBS) on a BlueWasher (BlueCatBio) then blocked with PBS containing 10% FBS for 20 mins. Blocking solution was removed with a BlueWasher and cells were stained with anti-pIRAK4 (Thr345/Ser346) (CST, #11927, 1:400) in blocking buffer with 0.05% Tween-20 for 1 h, then washed twice with PBS containing 0.05% Tween-20 on a BlueWasher, followed by staining with a Alexa 647-conjugated secondary anti-rabbit IgG antibody (CST, #4414, 1:2,000) and Hoechst 33342 (Sigma, 1:2,000) in blocking buffer with 0.05% Tween-20 for 30 mins. Finally, the cells were washed twice with PBS containing 0.05% Tween-20 and imaged on an ImageXpress Micro (Molecular Devices) with a 10× air objective using the appropriate filters. Images were analysed in Columbus (PerkinElmer) and the fluorescence intensity per cell from the secondary antibody was quantified. The quantified data were analysed in Genedata Screener 15 (Genedata AG). […] IC50 values are the geometric mean of at least 2 experiments.

human recombinant IRAK4 protein, sequence (Q9NWZ3 whole entry): as above

IC50 [1] | IC50 [2] | Structure (SMILES)
0.0021 µM | 0.034 µM | COc1cc2nn([C@@H]3CC[C@H](O)[C@@H](C)C3)cc2cc1C(=O)Nc1cnc2cccnn12 (single isomer, unassigned) [Example 83]
0.0011 µM | 0.025 µM | COc1cc2nn([C@H]3CCC[C@@H](O)[C@H]3C)cc2cc1C(=O)Nc1cnc2cccnn12 (single isomer, unassigned) [Example 104]
0.0065 µM | 0.096 µM | COc1cc2nn([C@H]3CCC[C@@H](O)[C@H]3C)cc2cc1C(=O)Nc1cnc2cccnn12 (single isomer, unassigned) [Example 105]
0.0004 µM | 0.016 µM | COc1cc2nn([C@H]3CCC[C@@H](O)[C@@H]3C)cc2cc1C(=O)Nc1cnc2cccnn12 (single isomer, unassigned) [Example 108]
0.0006 µM | 0.015 µM | COc1cc2nn([C@H]3CCC[C@@H](O)[C@@H]3C)cc2cc1C(=O)Nc1cnc2cccnn12 (single isomer, unassigned) [Example 109]
0.0139 µM | 0.199 µM | COc1cc2nn(C3CCC4(CC3)COCC(=O)N4C)cc2cc1C(=O)Nc1cnn2cccnc12 (single isomer, unassigned) [Example 118, 6-Methoxy-2-(1-methyl-2-oxo-4-oxa-1-azaspiro[5.5]undecan-9-yl)-N-(pyrazolo[1,5-a]pyrimidin-3-yl)-2H-indazole-5-carboxamide]
0.0005 µM | 0.016 µM | COc1cc2nn(C3CCC4(CC3)COCC(=O)N4C)cc2cc1C(=O)Nc1cnn2cccnc12 (single isomer, unassigned) [Example 119, 6-Methoxy-2-(1-methyl-2-oxo-4-oxa-1-azaspiro[5.5]undecan-9-yl)-N-(pyrazolo[1,5-a]pyrimidin-3-yl)-2H-indazole-5-carboxamide]
0.0001 µM | 0.005 µM | COc1cc2nn([C@H]3CC[C@@]4(CCC(=O)N4C)CC3)cc2cc1C(=O)Nc1cnc2cccnn12 [Example 1, N-(Imidazo[1,2-b]pyridazin-3-yl)-6-methoxy-2-((5r,8r)-1-methyl-2-oxo-1-azaspiro[4.5]decan-8-yl)-2H-indazole-5-carboxamide]
0.0034 µM | 0.124 µM | COc1cc2nn([C@H]3CC[C@]4(CCC(=O)N4C)CC3)cc2cc1C(=O)Nc1cnc2cccnn12 [Example 2, N-(Imidazo[1,2-b]pyridazin-3-yl)-6-methoxy-2-((5s,8s)-1-methyl-2-oxo-1-azaspiro[4.5]decan-8-yl)-2H-indazole-5-carboxamide]
0.0085 µM | 0.272 µM | COc1cc2nn([C@H]3CC[C@@H](C(=O)N(C)C)CC3)cc2cc1C(=O)Nc1cnc2cccnn12 [Example 3, 2-((1s,4s)-4-(Dimethylcarbamoyl)cyclohexyl)-N-(imidazo[1,2-b]pyridazin-3-yl)-6-methoxy-2H-indazole-5-carboxamide]
< 0.0003 µM | 0.017 µM | COc1cc2nn([C@H]3CC[C@H](C(=O)N(C)C)CC3)cc2cc1C(=O)Nc1cnc2cccnn12 [Example 4, 2-((1r,4r)-4-(Dimethylcarbamoyl)cyclohexyl)-N-(imidazo[1,2-b]pyridazin-3-yl)-6-methoxy-2H-indazole-5-carboxamide]
0.0051 µM | 0.268 µM | COc1cc2nn([C@H]3CC[C@@H](N(C)C(C)=O)CC3)cc2cc1C(=O)Nc1cnc2cccnn12 [Example 22, N-(Imidazo[1,2-b]pyridazin-3-yl)-6-methoxy-2-((1s,4s)-4-(N-methylacetamido)cyclohexyl)-2H-indazole-5-carboxamide]
0.0831 µM | 0.668 µM | COc1cc2nn([C@H]3CC[C@@H](N(C)C(C)=O)CC3)cc2cc1C(=O)Nc1cnn2cnccc12 [Example 24, 6-Methoxy-2-((1s,4s)-4-(N-methylacetamido)cyclohexyl)-N-(pyrazolo[1,5-c]pyrimidin-3-yl)-2H-indazole-5-carboxamide]
0.0044 µM | 0.067 µM | COc1cc2nn([C@H]3CC[C@@H](NC(=O)C4CC4)CC3)cc2cc1C(=O)Nc1cnn2cnccc12 [Example 27, 2-((1s,4s)-4-(Cyclopropanecarboxamido)cyclohexyl)-6-methoxy-N-(pyrazolo[1,5-c]pyrimidin-3-yl)-2H-indazole-5-carboxamide]
0.0012 µM | 0.079 µM | O=C(Nc1cnn2cccnc12)c1cc2cn([C@H]3CC[C@@H](O)CC3)nc2cc1OC1CC1 [Example 56]
0.0009 µM | 0.016 µM | COc1cc2nn([C@H]3CC[C@H](N(C)C(=O)[C@@H](C)O)CC3)cc2cc1C(=O)Nc1cnn2cccnc12 [Example 58]
0.0013 µM | 0.04 µM | COc1cc2nn([C@H]3CC[C@H](N(C)C(=O)[C@H](C)O)CC3)cc2cc1C(=O)Nc1cnn2cccnc12 [Example 59, 2-((1S,4r)-4-((S)-2-Hydroxy-N-methylpropanamido)cyclohexyl)-6-methoxy-N-(pyrazolo[1,5-a]pyrimidin-3-yl)-2H-indazole-5-carboxamide]
0.0004 µM | 0.04 µM | O=C(Nc1cnc2cccnn12)c1cc2cn([C@H]3CC[C@H](O)CC3)nc2cc1OC1CC1 [Example 84, 6-Cyclopropoxy-2-((1r,4r)-4-hydroxycyclohexyl)-N-(imidazo[1,2-b]pyridazin-3-yl)-2H-indazole-5-carboxamide]
0.0008 µM | 0.05 µM | O=C(Nc1cnc2cccnn12)c1cc2cn([C@H]3CC[C@@H](O)CC3)nc2cc1OC1CC1 [Example 85, 6-Cyclopropoxy-2-((1s,4s)-4-hydroxycyclohexyl)-N-(imidazo[1,2-b]pyridazin-3-yl)-2H-indazole-5-carboxamide]
0.0002 µM | 0.026 µM | COc1cc2nn([C@H]3CC[C@@]4(CC3)CC(=O)N(C)C4)cc2cc1C(=O)Nc1cnn2cccnc12 [Example 87, 6-methoxy-2-((5s,8s)-2-methyl-3-oxo-2-azaspiro[4.5]decan-8-yl)-N-(pyrazolo[1,5-a]pyrimidin-3-yl)-2H-indazole-5-carboxamide]
0.0013 µM | 0.044 µM | COc1cc2nn([C@@H]3CC[C@H](O)C[C@H]3C)cc2cc1C(=O)Nc1cnc2cccnn12 [Example 88, 2-((1R,2R,4S)-4-hydroxy-2-methylcyclohexyl)-N-(imidazo[1,2-b]pyridazin-3-yl)-6-methoxy-2H-indazole-5-carboxamide]
0.0052 µM | 0.101 µM | COc1cc2nn([C@H]3CC[C@@H](O)C[C@@H]3C)cc2cc1C(=O)Nc1cnc2cccnn12 [Example 90, 2-((1S,2S,4R)-4-hydroxy-2-methylcyclohexyl)-N-(imidazo[1,2-b]pyridazin-3-yl)-6-methoxy-2H-indazole-5-carboxamide]

Structure (SMILES) | IC50 [1] | IC50 [2]
COc1cc2nn([C@H]3CC[C@H](N(C)C(=O)[C@@H](C)O)CC3)cc2cc1C(=O)Nc1cnc2cccnn12 [Example 95, 2-((1R,4r)-4-((R)-2-Hydroxy-N-methylpropanamido)cyclohexyl)-N-(imidazo[1,2-b]pyridazin-3-yl)-6-methoxy-2H-indazole-5-carboxamide] | 0.0002 µM | 0.007 µM
COc1cc2nn([C@H]3CC[C@H](N(C)C(=O)C4CC4)CC3)cc2cc1C(=O)Nc1cnn2cnccc12 [Example 96, 6-Methoxy-2-((1r,4r)-4-(N-methylcyclopropanecarboxamido)cyclohexyl)-N-(pyrazolo[1,5-c]pyrimidin-3-yl)-2H-indazole-5-carboxamide] | 0.0005 µM | 0.015 µM
